Values after ≈ are worked out from the molar mass of the structure shown. One block for each compound: values may come before it.
How the values were obtained:
Human alphaherpesvirus 1 = test: Antiviral activity against HSV1 MP infected in African green monkey Vero cells assessed as inhibition of plaque formation after 48 hrs; assay type: functional; conditions: Human alphaherpesvirus 1, MP, read-out: ED50 (the source's name)
CDK6/cyclin D1 = CDK6/cyclin D1 (Homo sapiens, UniProt Q00534); test: Inhibition of recombinant human full length N-terminal GST-tagged CDK6 (M1 to A326 residues)/CyclinD1 (Q4 to I295 residues) expressed in Sf9 insect cells
CDK7/Cyclin H/MNAT1 = CDK7/Cyclin H/MNAT1 (Homo sapiens, UniProt P50613); test: Inhibition of recombinant human full length N-terminal GST/His6-tagged CDK7 (M1 to F346 residues)/N-terminal His6-tagged CyclinH (M1 to L323 residues)/N-terminal His6-tagged MAT1 (M1 to S306 residues) expressed in Sf9 insect cells
CDK9/cyclin T1 = CDK9/cyclin T1 (Homo sapiens, UniProt P50750); test: Inhibition of recombinant human full length N-terminal GST/His6-tagged CDK9 (M1 to F372 residues)/N-terminal His6-tagged CyclinT1 (M1 to K726 residues) expressed in Sf9 insect cells
[1] = biological target: Cyclin-dependent kinase 2/cyclin E1 (Homo sapiens, UniProt P24941); test: Inhibition of recombinant human full length N-terminal GST-tagged CDK2 (M1 to L298 residues)/CyclinE1 (M1 to A395 residues) expressed in baculovirus infected Sf9 insect cells using histone H1 as substrate by [gamma33P]ATP-based assay
MCF7 = test: Growth inhibition of human MCF7 cells after 72 hrs by Calcein AM dye based fluorescence assay; assay type: functional; conditions: MCF7, 72 h
K562 [2] = test: Growth inhibition of human K562 cells after 72 hrs by Calcein AM dye based fluorescence assay; assay type: functional; conditions: K562, 72 h
[3] = biological target: Cyclin-dependent kinase 4/cyclin D1 (Homo sapiens, UniProt P11802); test: Inhibition of recombinant human N-terminal GST-tagged CDK4 (S4 to E303 residues)/CyclinD1 (Q4 to I295 residues) expressed in Sf9 insect cells
[4] = biological target: Cyclin-dependent kinase 1/cyclin B1 (Homo sapiens, UniProt P06493); test: Inhibition of CDK1/CyclinB (unknown origin); assay type: protein-complex assay
K562 [5] = test: Antiproliferative activity against human K562 cells; assay type: functional, cell-based
Escherichia coli = test: Bactericidal activity against Escherichia coli NCTC 10418 by two-fold serial dilution assay; assay type: functional
Pseudomonas aeruginosa [6] = test: Antimicrobial activity against Pseudomonas aeruginosa ATCC 9027 by two-fold serial dilution assay; assay type: functional
Pseudomonas aeruginosa [7] = test: Bactericidal activity against Pseudomonas aeruginosa ATCC 9027 by two-fold serial dilution assay; assay type: functional
Staphylococcus aureus = test: Bactericidal activity against Staphylococcus aureus ATCC 6538 by two-fold serial dilution assay; assay type: functional
Candida albicans [8] = test: Fungicidal activity against Candida albicans ATCC 10231 by two-fold serial dilution assay; assay type: functional
Candida albicans [9] = test: Antimicrobial activity against Candida albicans ATCC 10231 by two-fold serial dilution assay; assay type: functional
Semliki Forest virus [10] = test: Antiviral activity against Semliki forest virus infected in Swiss Webster mouse assessed as mean survival time at 100 mg/kg, ip; assay type: functional
Semliki Forest virus [11] = test: Antiviral activity against Semliki forest virus infected in Swiss Webster mouse assessed as mean survival time at 50 mg/kg, ip; assay type: functional
Semliki Forest virus [12] = test: Antiviral activity against Semliki forest virus infected in Swiss Webster mouse assessed as mean survival time at 30 mg/kg, ip; assay type: functional
Semliki Forest virus [13] = test: Antiviral activity against Semliki forest virus infected in Swiss Webster mouse assessed as mouse survival at 50 mg/kg, ip measured after 18 to 24 hrs; assay type: functional
Semliki Forest virus [14] = test: Antiviral activity against Semliki forest virus infected in Swiss Webster mouse assessed as mean survival time at 10 mg/kg, ip; assay type: functional
Semliki Forest virus [15] = test: Antiviral activity against Semliki forest virus infected in Swiss Webster mouse assessed as mouse survival at 30 mg/kg, ip measured after 18 to 24 hrs; assay type: functional
Semliki Forest virus [16] = test: Antiviral activity against Semliki forest virus infected in Swiss Webster mouse assessed as mouse survival at 10 mg/kg, ip measured after 18 to 24 hrs; assay type: functional
Semliki Forest virus [17] = test: Antiviral activity against Semliki forest virus infected in Swiss Webster mouse assessed as mouse survival at 200 mg/kg, ip measured after 18 to 24 hrs; assay type: functional
Semliki Forest virus [18] = test: Antiviral activity against Semliki forest virus infected in Swiss Webster mouse assessed as mean survival time at 200 mg/kg, ip; assay type: functional
Semliki Forest virus [19] = test: Antiviral activity against Semliki forest virus infected in Swiss Webster mouse assessed as mouse survival at 100 mg/kg, ip measured after 18 to 24 hrs; assay type: functional
Nicotiana tabacum [20] = test: Anticytokinin activity against Nicotiana tabacum; assay type: functional, organism-based
Nicotiana tabacum [21] = test: Toxicity in Nicotiana tabacum; assay type: organism-based
Nicotiana tabacum [22] = test: Growth inhibition of cytokinin-autonomous tobacco cells; assay type: functional; conditions: for TGI: read-out: GI100
Nicotiana tabacum [23] = test: Growth inhibition of cytokinin-requiring tobacco cells; assay type: functional; conditions: for TGI: read-out: GI100

Sequence of CDK7/Cyclin H/MNAT1 (P51946 whole entry, the tested form may be a part): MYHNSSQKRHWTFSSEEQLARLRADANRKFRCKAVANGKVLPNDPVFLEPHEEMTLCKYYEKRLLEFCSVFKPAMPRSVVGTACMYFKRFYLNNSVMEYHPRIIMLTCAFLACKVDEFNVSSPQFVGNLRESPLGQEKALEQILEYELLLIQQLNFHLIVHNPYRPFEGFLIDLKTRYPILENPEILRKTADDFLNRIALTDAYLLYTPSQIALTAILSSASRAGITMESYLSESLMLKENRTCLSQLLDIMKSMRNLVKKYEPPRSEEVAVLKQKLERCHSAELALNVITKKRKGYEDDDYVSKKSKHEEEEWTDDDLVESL
Sequence of CDK7/Cyclin H/MNAT1 (P50613 whole entry, the tested form may be a part): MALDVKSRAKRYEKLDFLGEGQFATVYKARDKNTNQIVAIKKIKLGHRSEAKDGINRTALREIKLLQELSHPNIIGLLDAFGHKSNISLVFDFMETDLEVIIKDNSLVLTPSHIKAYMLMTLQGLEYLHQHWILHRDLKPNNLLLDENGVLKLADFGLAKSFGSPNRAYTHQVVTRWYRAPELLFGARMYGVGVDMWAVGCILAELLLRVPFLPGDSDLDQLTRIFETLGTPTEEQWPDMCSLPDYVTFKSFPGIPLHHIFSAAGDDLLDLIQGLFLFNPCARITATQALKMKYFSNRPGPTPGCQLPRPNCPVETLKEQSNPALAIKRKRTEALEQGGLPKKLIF
Sequence of CDK7/Cyclin H/MNAT1 (P51948 whole entry, further chain, the tested form may be a part): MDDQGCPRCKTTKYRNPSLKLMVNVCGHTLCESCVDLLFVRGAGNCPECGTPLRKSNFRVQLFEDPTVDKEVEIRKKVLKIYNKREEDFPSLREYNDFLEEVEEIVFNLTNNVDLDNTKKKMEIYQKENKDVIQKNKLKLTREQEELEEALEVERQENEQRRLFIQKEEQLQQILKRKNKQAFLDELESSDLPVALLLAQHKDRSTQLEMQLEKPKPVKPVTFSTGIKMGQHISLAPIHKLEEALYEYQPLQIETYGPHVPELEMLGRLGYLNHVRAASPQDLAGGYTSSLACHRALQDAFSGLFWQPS
Sequence of Cyclin-dependent kinase 4/cyclin D1 (P11802 whole entry, the tested form may be a part): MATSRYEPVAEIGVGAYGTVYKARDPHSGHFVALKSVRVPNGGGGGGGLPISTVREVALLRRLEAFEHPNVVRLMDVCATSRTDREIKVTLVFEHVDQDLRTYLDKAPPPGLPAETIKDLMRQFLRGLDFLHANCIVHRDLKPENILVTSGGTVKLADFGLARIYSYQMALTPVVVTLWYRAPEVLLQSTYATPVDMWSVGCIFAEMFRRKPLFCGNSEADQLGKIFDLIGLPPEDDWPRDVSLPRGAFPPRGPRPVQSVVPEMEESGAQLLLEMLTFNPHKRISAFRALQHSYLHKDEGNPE
Sequence of Cyclin-dependent kinase 4/cyclin D1 (P24385 whole entry, further chain, the tested form may be a part): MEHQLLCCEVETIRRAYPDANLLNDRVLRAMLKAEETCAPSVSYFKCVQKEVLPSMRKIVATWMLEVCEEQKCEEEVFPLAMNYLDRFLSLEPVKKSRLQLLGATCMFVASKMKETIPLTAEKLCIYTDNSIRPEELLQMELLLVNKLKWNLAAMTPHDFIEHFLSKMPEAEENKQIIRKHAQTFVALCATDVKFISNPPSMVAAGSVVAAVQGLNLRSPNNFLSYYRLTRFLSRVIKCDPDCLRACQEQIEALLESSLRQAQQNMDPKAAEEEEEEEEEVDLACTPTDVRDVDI
Sequence of Cyclin-dependent kinase 1/cyclin B1 (P06493 whole entry): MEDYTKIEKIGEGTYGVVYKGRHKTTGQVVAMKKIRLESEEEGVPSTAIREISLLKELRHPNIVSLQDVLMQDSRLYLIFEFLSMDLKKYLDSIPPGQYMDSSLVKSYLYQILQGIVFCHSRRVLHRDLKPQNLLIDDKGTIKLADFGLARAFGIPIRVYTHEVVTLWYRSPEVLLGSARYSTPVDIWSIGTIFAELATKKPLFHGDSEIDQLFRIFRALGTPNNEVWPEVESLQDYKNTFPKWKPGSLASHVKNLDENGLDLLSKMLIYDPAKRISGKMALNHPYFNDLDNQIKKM
Sequence of Cyclin-dependent kinase 1/cyclin B1 (P14635 whole entry, further chain): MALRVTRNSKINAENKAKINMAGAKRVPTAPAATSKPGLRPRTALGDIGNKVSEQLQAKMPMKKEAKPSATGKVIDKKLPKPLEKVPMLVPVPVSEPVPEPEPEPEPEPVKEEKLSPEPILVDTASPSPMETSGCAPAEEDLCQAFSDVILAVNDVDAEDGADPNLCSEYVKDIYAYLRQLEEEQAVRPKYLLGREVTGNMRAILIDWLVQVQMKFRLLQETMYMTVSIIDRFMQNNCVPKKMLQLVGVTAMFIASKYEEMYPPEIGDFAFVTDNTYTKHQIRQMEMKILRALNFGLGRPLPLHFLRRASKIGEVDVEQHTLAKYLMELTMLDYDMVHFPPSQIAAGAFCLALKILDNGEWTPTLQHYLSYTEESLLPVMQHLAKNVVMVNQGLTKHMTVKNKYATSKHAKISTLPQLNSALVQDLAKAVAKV
Sequence of CDK9/cyclin T1 (O60563 whole entry, the tested form may be a part): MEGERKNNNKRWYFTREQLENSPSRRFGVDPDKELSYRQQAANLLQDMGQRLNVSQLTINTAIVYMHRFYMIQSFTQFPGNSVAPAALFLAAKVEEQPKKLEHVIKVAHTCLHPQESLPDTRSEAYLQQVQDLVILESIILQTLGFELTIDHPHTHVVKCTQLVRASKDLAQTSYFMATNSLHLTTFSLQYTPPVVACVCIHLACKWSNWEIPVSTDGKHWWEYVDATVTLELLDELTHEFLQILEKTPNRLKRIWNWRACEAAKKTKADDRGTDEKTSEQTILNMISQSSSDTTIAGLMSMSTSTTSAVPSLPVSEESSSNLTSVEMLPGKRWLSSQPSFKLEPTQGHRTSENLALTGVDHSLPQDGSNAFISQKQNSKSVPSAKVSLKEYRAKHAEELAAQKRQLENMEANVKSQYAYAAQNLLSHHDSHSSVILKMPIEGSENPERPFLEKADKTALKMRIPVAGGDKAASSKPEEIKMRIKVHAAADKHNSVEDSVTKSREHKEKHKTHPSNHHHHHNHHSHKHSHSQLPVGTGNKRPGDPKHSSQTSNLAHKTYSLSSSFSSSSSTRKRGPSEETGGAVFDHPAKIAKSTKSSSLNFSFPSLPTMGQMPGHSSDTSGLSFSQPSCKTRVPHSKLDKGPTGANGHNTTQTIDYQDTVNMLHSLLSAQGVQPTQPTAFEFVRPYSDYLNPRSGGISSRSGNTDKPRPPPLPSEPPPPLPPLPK
Sequence of CDK9/cyclin T1 (P50750 whole entry, the tested form may be a part): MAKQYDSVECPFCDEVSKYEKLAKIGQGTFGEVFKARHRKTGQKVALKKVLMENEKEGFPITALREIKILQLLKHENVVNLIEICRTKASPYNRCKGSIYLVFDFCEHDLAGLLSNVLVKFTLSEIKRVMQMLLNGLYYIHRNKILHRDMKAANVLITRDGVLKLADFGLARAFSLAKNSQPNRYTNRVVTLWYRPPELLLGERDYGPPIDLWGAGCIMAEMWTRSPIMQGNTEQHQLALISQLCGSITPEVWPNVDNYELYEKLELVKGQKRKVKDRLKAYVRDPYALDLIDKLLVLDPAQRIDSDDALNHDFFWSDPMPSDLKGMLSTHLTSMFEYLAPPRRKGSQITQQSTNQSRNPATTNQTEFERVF
Sequence of CDK6/cyclin D1 (P24385 whole entry, the tested form may be a part): as the sequence (P24385 whole entry, further chain, the tested form may be a part) above
Sequence of CDK6/cyclin D1 (Q00534 whole entry, the tested form may be a part): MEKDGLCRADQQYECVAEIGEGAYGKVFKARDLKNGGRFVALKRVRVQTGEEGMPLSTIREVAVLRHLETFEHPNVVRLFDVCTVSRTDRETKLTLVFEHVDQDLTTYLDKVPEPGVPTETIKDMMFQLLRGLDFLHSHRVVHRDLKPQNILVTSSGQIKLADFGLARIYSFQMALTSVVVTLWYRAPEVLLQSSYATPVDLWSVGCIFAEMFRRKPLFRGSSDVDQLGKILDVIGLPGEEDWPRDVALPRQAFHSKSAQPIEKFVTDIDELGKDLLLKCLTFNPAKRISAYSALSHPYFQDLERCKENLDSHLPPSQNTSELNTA

IC50 (CDK6/cyclin D1): > 100000 nM | IC50 (CDK7/Cyclin H/MNAT1): > 100000 nM | IC50 (CDK9/cyclin T1): > 1000 nM
Compound: CC(C)c1n[nH]c2c(NCc3ccccc3)nc(NC3CCCCC3N)nc12 (stereo not given)

IC50 [1]: 15.3 nM | GI50 (MCF7): 10900 nM | GI50 (K562 [2]): 22300 nM
Compound: CC[C@@H](CO)Nc1nc(NCc2ccccc2N)c2[nH]nc(C(C)C)c2n1

IC50 (CDK7/Cyclin H/MNAT1): > 100000 nM | IC50 [3]: 6600 nM
Compound: CC(C)c1n[nH]c2c(NCc3ccccc3)nc(NC3CCC(N)CC3)nc12 (stereo not given)

IC50 [4]: 440 nM | IC50 (K562 [5]): 54000 nM
Compound: CC(C)c1n[nH]c2c(NCc3ccccc3O)ncnc12

IC50 [1]: 16.5 nM | GI50 (MCF7): 4400 nM | GI50 (K562 [2]): 15500 nM
Compound: CC(C)c1n[nH]c2c(NCc3ccccc3N)nc(NC[C@@H](C)O)nc12

IC50 (K562 [5]): 163000 nM
Compound: Cn1cnc2c(NCc3ccccc3)nc(NCCO)nc21 [OLOMOUCINE]

IC50 (Nicotiana tabacum [20]): 30 nM
Compound: CCCCCCNc1ncnc2c(C)n[nH]c12
IC50 (Nicotiana tabacum [21]): 500 nM

IC50 (Nicotiana tabacum [20]): 30 nM
Compound: CCCCCNc1ncnc2c(C)n[nH]c12
GI50 (Nicotiana tabacum [22]): 25 nM | TGI (Nicotiana tabacum [22]): 50 nM | GI50 (Nicotiana tabacum [23]): 20 nM | TGI (Nicotiana tabacum [23]): 50 nM | IC50 (Nicotiana tabacum [21]): 200 nM

IC50 [1]: 10.5 nM | GI50 (MCF7): 2800 nM | GI50 (K562 [2]): 9200 nM
Compound: CC[C@H](CO)Nc1nc(NCc2ccccc2N)c2[nH]nc(C(C)C)c2n1

The next lines start with the compound.

Compound: CCCCn1cnc2c(C)nn([C@@H]3O[C@H](CO)[C@@H](O)[C@H]3O)c2c1=O
EC50 (Human alphaherpesvirus 1): 152000 nM

Compound: COc1ccc(Cn2cnc3c(C)nn([C@@H]4O[C@H](CO)[C@@H](O)[C@H]4O)c3c2=O)cc1
EC50 (Human alphaherpesvirus 1): 49500 nM

Compound: CC1(C)S[C@@H]2[C@H](NC(=O)[C@H](N)c3ccccc3)C(=O)N2[C@H]1C(=O)O [AMPICILLIN]
MBC (Escherichia coli): 31.2 µg/mL (≈ 89.4 µM) | MIC (Pseudomonas aeruginosa [6]): 250 µg/mL (≈ 715 µM) | MBC (Pseudomonas aeruginosa [7]): 500 µg/mL (≈ 1430 µM) | MBC (Staphylococcus aureus): 15.6 µg/mL (≈ 44.7 µM)

Compound: Clc1ccccc1C(c1ccccc1)(c1ccccc1)n1ccnc1 [CLOTRIMAZOLE]
MFC (Candida albicans [8]): 15.6 µg/mL (≈ 45.3 µM) | MIC (Candida albicans [9]): 7.81 µg/mL (≈ 22.6 µM)

Compound: Cn1nc([C@@H]2O[C@H](CO)[C@@H](O)[C@H]2O)c2nc(N)[nH]c(=O)c21
MST (Semliki Forest virus [10]): 8 days | MST (Semliki Forest virus [11]): 6 days | MST (Semliki Forest virus [12]): 9.2 days | survival at 50 mg/kg (Semliki Forest virus [13]): 67% | MST (Semliki Forest virus [14]): 9.6 days | survival at 30 mg/kg (Semliki Forest virus [15]): 50% | survival at 10 mg/kg (Semliki Forest virus [16]): 8% | survival at 200 mg/kg (Semliki Forest virus [17]): 58% | MST (Semliki Forest virus [18]): 7 days | survival at 100 mg/kg (Semliki Forest virus [19]): 67%

Compound: O=c1[nH]cnc2c(-c3ccc(Br)cc3)n[nH]c12
MFC (Candida albicans [8]): 250 µg/mL (≈ 859 µM) | MIC (Candida albicans [9]): 250 µg/mL (≈ 859 µM)

Compound: O=c1[nH]c(=O)n([C@H]2C[C@H](O)[C@@H](CO)O2)cc1I [IDOXURIDINE]
EC50 (Human alphaherpesvirus 1): 1200 nM

Compound: Cc1n[nH]c2c(NCc3ccccc3)ncnc12
GI50 (Nicotiana tabacum [22]): 30 nM | TGI (Nicotiana tabacum [22]): 100 nM | GI50 (Nicotiana tabacum [23]): 40 nM | TGI (Nicotiana tabacum [23]): 150 nM

Compound: Nc1nc(=O)c2sc(=O)n([C@@H]3O[C@H](CO)[C@@H](O)[C@H]3O)c2[nH]1 [ISATORIBINE]
MST (Semliki Forest virus [10]): 8 days | survival at 100 mg/kg (Semliki Forest virus [19]): 92%

Compound: Cc1n[nH]c2c(NCCC(C)C)ncnc12
IC50 (Nicotiana tabacum [20]): 100 nM | IC50 (Nicotiana tabacum [21]): 730 nM

Compound: Cc1nn([C@@H]2O[C@H](CO)[C@@H](O)[C@H]2O)c2c(=O)n(-c3ccc(Cl)cc3)cnc12
EC50 (Human alphaherpesvirus 1): 50000 nM

Reference: ChEMBL document CHEMBL4184194, “An appraisal on synthetic and pharmaceutical perspectives of pyrazolo[4,3-d]pyrimidine scaffold” (Bioorg Med Chem, 2018)
